In patent publication US9107909B2, “Materials and methods to enhance hematopoietic stem cells engraftment procedures” (priority 2008, dated 2015):
“And” between values parts separate entries of the source, which are not always exact repeats. Equal values may be shown once. “Also recorded” adds a separate entry of the source.

Columns and labels:
SKL cells = experiment: In vitro cell cycle analysis; format: cell-based, mouse
Method: For in vitro cell cycle analysis, Lin^neg cells were treated with either 1 microMolar dmPGE2 or vehicle for 2 hours, washed, and cultured in Stem Cell Pro Media (Stem Cell Technologies) with rmSCF (50 ng/ml) (R&D Systems, Minneapolis, Minn.), rhFlt-3 and rhTPO (100 ng/ml each) (Immunex, Seattle, Wash.). After 20 hours, cells were stained for SKL, fixed and permeabilized, and stained with 7AAD (BD Biosciences, San Jose, Calif.). The proportion of SKL cells in S+G2/M phase was determined by measuring DNA content by FACS. For in vivo cell cycle analysis, CD45.2 mice were lethally irradiated and transplanted with 5×10^6 Lin^neg cells from CD45.1 mice treated with either 1 microMolar dmPGE2 or vehicle for 2 hours. At the time of transplant, recipient mice received 1 milligram/mL BrdU (Sigma Aldrich, St. Louis, Mo.) in drinking water and 1 mg per mouse BrdU I.P. After 16 hours, recipient marrow was isolated, lineage depleted, and stained for CD45.1, SKL and BrdU. The proportion of homed (CD45.1^+) SKL cells that were BrdU^+ was determined by FACS in individual mice.
Survivin regulates HSPC entry into and progression through cell cycle. Furthermore, β-catenin, implicated in HSPC proliferation and self-renewal, lies downstream of EP receptor pathways. […] To test this hypothesis, the cell cycle status of SKL cells pulsed with dmPGE2 or vehicle in vitro was analyzed. Referring now to FIG. 6A, pulse-exposure to dmPGE2 increased DNA content in SKL cells, an indication of increased cell cycling (left panels, upper right quadrant). In 3 experiments, 60% more SKL cells were in S+G2/M phase of the cell cycle after dmPGE2 treatment compared to controls (FIG. 6A right panel).
Lineage^neg cells were treated with either vehicle or 1 microMolar dmPGE2 for 2 hours, washed and cultured in media with rmSCF, rhFlt3 and rhTpo. After 20 hours cells were stained for SKL and Hoechst-33342 and Pyronin-Y. The proportion of SKL cells in cell cycle were measured by FACS. Referring now to FIG. 12, representative flow plot showing cell cycle distribution of gated SKL cells and combined data for fold increase in cell cycle for dmPGE2-treated cells compared to vehicle control from 3 experiments, Mean±SEM, n=9 mice, each assayed individually. […]
Referring now to FIG. 8, table summarizing data collected using Lin^neg bone marrow cells treated with either 1 microMolar dmPGE2 or vehicle for 2 hours and cultured in the presence of growth factors (50 ng/ml rmSCF, 100 ng/ml each of rhFlt-3 and rhTPO) for 20 hours, were stained for SLAM SKL, Hoechst-33342 and Pyronin-Y and the proportion of SLAM SKL cells in G0, G1, S and G2/M phase of the cell cycle determined by quantitation of the DNA and the RNA content by FACS. Data are Mean±SEM for n=9 mice, each assayed individually. ^(b)Percentage of cells in G1+S+G2M; Combined data for n=9 mice. ^(*^)P<0.05 compared to vehicle control.

[1] = system: long-term repopulating HSPC; experiment: Limiting dilution competitive transplantation of ex vivo pulsed bone marrow; format: in vivo, mouse
Method: WBM cells (CD45.2) were treated on ice for 2 hours with either 1 microMolar dmPGE2 (Cayman Chemical, Ann Arbor, Mich.) per 1×10^6 cells or 0.01% ETOH in sterile, non-pyrogenic PBS. After incubation, cells were washed twice and mixed with 2×10^5 congenic CD45.1 competitor marrow cells at ratios of 0.075:1, 0.25:1, 1:1, and 2.5:1 and transplanted into lethally irradiated CD45.1 mice (1100-cGy split dose) by tail-vein injection (5 mice per dilution). CD45.1 and CD45.2 cells in PB were determined monthly by flow cytometry. For head-to-head competitive transplants, WBM from CD45.1 mice and CD45.2 mice were treated with vehicle or dmPGE2 and mixed with 2×10^5 competitor marrow cells from CD45.1/CD45.2 mice at ratios of 0.075:1, 0.25:1, 1:1, and 2.5:1 and transplanted into lethally irradiated CD45.1/CD45.2 mice. The proportion of CD45.1, CD45.2, and CD45.1/CD45.2 cells in PB was determined monthly. HSPC frequency was quantitated by Poisson statistics using L-CALC software (Stem Cell Technologies, Vancouver BC, Canada) with <5% contribution to chimerism considered a negative recipient. Competitive repopulating units (CRU) were calculated as described (Harrison, 1980). For secondary transplants, 2×10^6 WBM from previously transplanted F1 Hybrid mice at the 1:1 ratio at 20 weeks post-transplant were injected into lethally irradiated F1 Hybrid mice in non-competitive fashion and PB chimerism and tri-lineage reconstitution evaluated monthly.
Referring now to FIG. 1A, bone marrow from CD45.1 or CD45.2 mice were treated with vehicle or dmPGE2 respectively. CD45.1/CD45.2 hybrid marrow cells were used as competitors. Limiting dilutions were transplanted into lethally irradiated (1100 cGys, split dose) CD45.1/CD45.2 hybrid mice and chimerism in PB analyzed for 20 weeks. A representative flow plot detecting each cell population is shown (bottom panel).
Referring now to FIG. 1B, frequency analysis (top) for vehicle (red) or dmPGE2 (blue) pulsed cells, determined by Poisson statistics, at 12 weeks; P0=85,560 (vehicle) and P0=23,911 (dmPGE2 treated). Chimerism in PB and CRU analysis is shown at 12 weeks (Mean±SEM). Data represent 2 pooled experiments, n=5 mice/group/expt., each assayed individually.
This model permits quantitative comparison of engraftment and competitiveness of HSPC from control and dmPGE2 treatment groups within the same animal (FIG. 1A), as well as endogenous repopulation of host cells.
For head-to-head competitive analysis, WBM from CD45.1 and CD45.2 mice were treated with vehicle or dmPGE2 and mixed with 2×10^5 competitor marrow cells from CD45.1/CD45.2 mice at various ratios and transplanted into lethally-irradiated CD45.1/CD45.2 mice. The proportion of CD45.1, CD45.2, and CD45.1/CD45.2 cells in PB was determined monthly. For secondary, tertiary and quaternary transplants, 2×10^6 WBM from previously transplanted CD45.1/CD45.2 mice at a 1:1 ratio were injected into lethally-irradiated CD45.1/CD45.2 mice in non-competitive fashion. The proportion of CD45.1, CD45.2, and CD45.1/CD45.2 cells in PB was determined monthly. […] Data for 20 week primary transplant were from 2 pooled experiments, n=5 mice/group/experiment, each assayed individually. Data for secondary, tertiary, and quaternary transplants were from n=5 mice/group, each assayed individually

[2] = 12 weeks post-transplant, vs vehicle treated cells

| SMILES | cell cycle rate of CD150+48− (SLAM) SKL cells (SKL cells; in vitro, 1 microMolar 2 hours, 20 hours culture) | proportion of SKL cells actively in cell cycle (SKL cells; in vitro, within 24 hours post-treatment) | increase in proportion of HSPC in cell cycle / HSPC cell cycle activity (SKL cells; pulse exposure) [fold] | number of treated cells giving equivalent reconstitution vs control cells ([1]; frequency analysis, limiting dilution) | period over which enhanced engraftment / HSPC frequency was stable ([1]; primary transplant) | competitive advantage / increase in HSPC frequency of PGE2-pulsed HSPC ([1]; short-term ex vivo exposure, vs control cells, Poisson statistics and CRU) [fold] | cell cycle rate of KL or Lin neg cells (SKL cells; in vitro) | more SKL cells in S+G2/M phase of the cell cycle (SKL cells; in vitro, 3 experiments, vs controls) [%] | chimerism in peripheral blood [1, 2] | increase in HSPC frequency and competitive repopulating units (CRU) [1, 2] [fold] | reconstitution of B- and T-lymphoid and myeloid lineages in PB ([1]; 32 weeks post-transplant, vs untreated competitor or vehicle treated cells) | HSPC frequency analysis P0 (Poisson statistics) ([1]; at 12 weeks, pulsed cells) | chimerism in serial (secondary, tertiary, quaternary) transplants ([1]; no additional treatment before serial transplant) | increase in HSPC frequency ([1]; throughout 20 weeks of follow up post-transplant) [fold] |
| --- | --- | --- | --- | --- | --- | --- | --- | --- | --- | --- | --- | --- | --- | --- |
| CCCCC[C@H](O)/C=C/[C@H]1[C@H](O)CC(=O)[C@@H]1C/C=C\CCCC(=O)O [PGE2, Prostaglandin E2] | Increases the Cell Cycle Rate | increase | ~2 | one-fourth | 28 weeks and > 20 weeks | 4 | – | – | – | – | – | – | – | – |
| CCCCC(C)(C)[C@H](O)/C=C/[C@H]1[C@H](O)CC(=O)[C@@H]1C/C=C\CCCC(=O)O [dmPGE2, 16,16-dimethyl prostaglandin E2] | – | – | – | – | – | – | No significant effect | 60 | increased chimerism | ~4 | no discernible differences | 23,911 | also seen in secondary transplants; also recorded: Increased chimerism | ~4 |
